The source of these data is paper PMC9962600, “Structure-Function Studies of Sponge-Derived Compounds on the Cardiac CaV3.1 Channel” (International Journal of Molecular Sciences, 2023).

“And” between values parts separate entries of the source, which are not always exact repeats. Identical values can stand only once.

For data set [1], the target named is T1, rat CaV3.1 channel (Rattus norvegicus, UniProt O54898). Description: Two-electrode voltage clamp on Xenopus oocytes expressing CaV3.1. It counts as cell-based. The note with it: for inhibition at 10 µM / Shift in the voltage dependency (activation/inactivation) of CaV3.1: 10 μM compound; for inhibition at 10 µM: 10 mM Ba2+, means ± SEM (n ≥ 3), read-out: Inhibition of CaV3.1 currents; for IC50: concentration-response 0.1-100 μM, means ± SEM; for Hill coefficient on CaV3.1: concentration-response fit; for Reversibility of effect on CaV3.1 on wash-out: wash-in and wash-out. The protocol:
In previous work, a library of 119 simplified analogs was synthesized with the aim of targeting KV10.1 [18, 23, 24, 25]. Due to the interesting activity of purpurealidin I (1), we decided to repurpose this existing library to investigate the structure–activity relationship with respect to the CaV3.1 channels. All compounds were first dissolved in DMSO and then diluted in a 10 mM Ba^2+ solution. Compounds were tested at a final concentration of 10 μM.
(§1) Rat CaV3.1, human CaV3.2, rat CaV3.3, human NaV1.5, rat KV1.4, rat KV4.2, and human KV11.1 were expressed in X. laevis oocytes by linearizing the plasmids and subsequent in vitro transcription using a commercial T7 mMESSAGE mMACHINE transcription kit (Ambion, Carlsbad, CA, USA). Defolliculated Xenopus oocytes were injected with 50 nL of cRNA at a concentration of 1 ng/nL by using a microinjector (Drummond Scientific Company, Broomall, PA, USA). The oocytes were incubated in a solution containing (in mM): NaCl, 96; KCl, 2; CaCl2, 1.8; MgCl2, 2; and HEPES, 5 (pH 7.5). This solution was supplemented with 50 mg/L gentamicin sulfate and […] theophylline.
(§2) Two-electrode voltage clamp recordings were performed at room temperature (18–22 °C) by using a GeneClamp 500 amplifier (Molecular Devices, San Jose, CA, USA) controlled by a pClamp data acquisition system (Axon Instruments, Union City, CA, USA). Whole-cell currents from oocytes were recorded 5–10 days after mRNA injection. The bath solution composition was the following (in mM): BaCl2, 10; NaOH, 90; KOH, 1; EDTA, 0.1; and HEPES, 5 (pH 7.5). Voltage and current electrodes were filled with 3 M KCl. Resistances of both electrodes were kept between 0.8 and 1.5 MΩ. The elicited CaV3.1, CaV3.2, and CaV3.3 currents were filtered at 2 kHz and sampled at 4 kHz using a four-pole low-pass Bessel filter. Leak subtraction was performed by using a -P/4 protocol. Oocytes were placed in a measuring chamber filled with 200 μL ND96. The compounds were added directly to the measuring chamber under continuous application of the described voltage protocol. The percentage channel modulation was calculated when steady-state conditions were reached.
(§3) For the electrophysiological analysis of peptides, a number of protocols were applied from a holding potential of −90 mV. Currents for CaV3.1 and CaV3.2, which were carried by Ba^2+, were evoked by 300 ms depolarizing pulses to −25 mV or Vmax (the voltage corresponding to maximal Ba^2+ current in control conditions). Currents for CaV3.3, which were carried by Ba^2+, were evoked by 1 s depolarizing pulses to −25 mV or Vmax. The current–voltage relationships were determined by 600 ms step depolarizations between −90 and +60 mV, using 10 mV increments. The values of IPBa were normalized to the maximal Ba^2+ current amplitude and plotted as a function of voltage. To investigate the effect of the peptide toxins on the activation and steady-state inactivation, a standard 2-step protocol was used. In this protocol, 600 ms conditioning 10 mV step prepulses, ranging from −90 to +60 mV, were followed by a 400 ms test pulse to −25 mV. Data were normalized to the maximal Ba^2+ current amplitude, plotted against prepulse potential, and fitted by using the Boltzmann function: ICa/Imax = {(1 − C)/(1 + exp[(V − Vh)/k)]} + C, where Imax is the maximal IBa, Vh is the voltage corresponding to half-maximal inactivation, V is the test voltage, k is the slope factor, and C is a constant representing a non-inactivating persistent fraction (close to 0 in control). The concentration–response relationship was determined by fitting the data with the Hill equation: y = 100/{1 + [IC50/(toxin)]^h}, where y is the amplitude of the toxin-induced effect, IC50 is the toxin concentration at half-maximal efficacy, toxin is the toxin concentration, and h is the Hill coefficient.
On the technique in general: In two-electrode clamp one electrode senses voltage and the other passes current.

The target in the next data set is rat CaV3.3 (Rattus norvegicus, UniProt Q9Z0Y8). As to the kind of experiment: Two-electrode voltage clamp on Xenopus oocytes expressing CaV3.3. It counts as cell-based. The following applies: for Shift in the voltage dependency (activation/inactivation) of CaV3.3: 10 μM compound; for Hill coefficient on CaV3.3: concentration-response fit; for IC50: concentration-response, means ± SEM; for Reversibility of effect on CaV3.3 on wash-out: wash-in and wash-out. The protocol: as §1, §2, §3
rat CaV3.3, sequence (Q9Z0Y8 whole entry): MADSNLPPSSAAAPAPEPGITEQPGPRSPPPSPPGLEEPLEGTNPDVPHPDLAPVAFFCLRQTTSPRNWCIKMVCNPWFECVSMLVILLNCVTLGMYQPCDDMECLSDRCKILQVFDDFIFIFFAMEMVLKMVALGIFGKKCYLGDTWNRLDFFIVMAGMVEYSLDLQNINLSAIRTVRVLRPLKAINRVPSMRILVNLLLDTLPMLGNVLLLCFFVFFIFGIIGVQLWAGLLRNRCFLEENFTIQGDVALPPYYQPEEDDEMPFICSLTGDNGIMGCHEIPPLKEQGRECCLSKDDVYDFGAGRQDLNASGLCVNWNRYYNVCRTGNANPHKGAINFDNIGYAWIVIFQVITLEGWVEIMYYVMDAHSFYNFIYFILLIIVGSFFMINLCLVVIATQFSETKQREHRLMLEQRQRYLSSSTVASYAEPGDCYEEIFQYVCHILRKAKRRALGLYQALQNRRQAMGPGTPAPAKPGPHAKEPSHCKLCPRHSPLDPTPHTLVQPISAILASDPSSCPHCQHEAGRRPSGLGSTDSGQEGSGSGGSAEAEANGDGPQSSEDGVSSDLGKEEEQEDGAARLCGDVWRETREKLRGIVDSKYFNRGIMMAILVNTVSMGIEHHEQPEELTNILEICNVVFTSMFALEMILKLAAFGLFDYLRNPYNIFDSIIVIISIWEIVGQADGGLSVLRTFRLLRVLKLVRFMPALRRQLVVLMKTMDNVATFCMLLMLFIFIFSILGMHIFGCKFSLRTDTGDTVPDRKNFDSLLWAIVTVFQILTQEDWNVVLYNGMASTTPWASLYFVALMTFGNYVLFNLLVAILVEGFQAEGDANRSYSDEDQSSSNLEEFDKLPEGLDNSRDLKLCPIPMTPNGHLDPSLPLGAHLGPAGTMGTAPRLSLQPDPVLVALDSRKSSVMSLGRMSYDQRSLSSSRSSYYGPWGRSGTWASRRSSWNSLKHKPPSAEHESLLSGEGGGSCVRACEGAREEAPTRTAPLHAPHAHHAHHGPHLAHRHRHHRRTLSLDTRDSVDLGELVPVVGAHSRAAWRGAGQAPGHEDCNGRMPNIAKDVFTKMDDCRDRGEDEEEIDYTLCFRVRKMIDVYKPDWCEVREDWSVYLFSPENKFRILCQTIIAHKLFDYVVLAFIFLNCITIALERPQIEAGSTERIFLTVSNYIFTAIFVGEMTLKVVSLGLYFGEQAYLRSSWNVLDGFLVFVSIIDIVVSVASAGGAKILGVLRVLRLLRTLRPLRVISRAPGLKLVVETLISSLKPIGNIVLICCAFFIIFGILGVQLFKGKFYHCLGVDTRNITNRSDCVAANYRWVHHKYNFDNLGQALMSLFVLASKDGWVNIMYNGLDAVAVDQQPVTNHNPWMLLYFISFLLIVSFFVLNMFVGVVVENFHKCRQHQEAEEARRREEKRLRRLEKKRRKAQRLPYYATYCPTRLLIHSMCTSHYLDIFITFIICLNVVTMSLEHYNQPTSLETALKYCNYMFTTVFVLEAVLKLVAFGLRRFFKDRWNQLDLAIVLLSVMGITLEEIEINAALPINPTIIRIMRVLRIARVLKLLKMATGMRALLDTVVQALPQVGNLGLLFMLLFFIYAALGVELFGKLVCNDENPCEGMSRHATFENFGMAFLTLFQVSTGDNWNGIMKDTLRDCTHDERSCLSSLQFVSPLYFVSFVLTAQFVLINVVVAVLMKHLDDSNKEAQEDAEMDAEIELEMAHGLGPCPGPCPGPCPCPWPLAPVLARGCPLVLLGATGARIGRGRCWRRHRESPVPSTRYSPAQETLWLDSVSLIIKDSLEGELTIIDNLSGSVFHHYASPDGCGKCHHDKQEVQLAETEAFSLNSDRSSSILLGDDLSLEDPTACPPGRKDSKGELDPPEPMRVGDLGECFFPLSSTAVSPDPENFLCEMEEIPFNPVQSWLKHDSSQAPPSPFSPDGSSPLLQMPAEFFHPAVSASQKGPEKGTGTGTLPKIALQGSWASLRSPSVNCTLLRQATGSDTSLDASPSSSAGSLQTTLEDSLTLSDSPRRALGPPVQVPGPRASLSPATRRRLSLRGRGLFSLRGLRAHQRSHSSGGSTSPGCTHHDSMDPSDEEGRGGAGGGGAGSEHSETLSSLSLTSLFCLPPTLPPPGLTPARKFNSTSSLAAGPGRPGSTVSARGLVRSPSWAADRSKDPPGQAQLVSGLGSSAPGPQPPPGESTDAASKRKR

A further data set has as its target human CaV3.2 (Homo sapiens, UniProt O95180). As to the kind of experiment: Two-electrode voltage clamp on Xenopus oocytes expressing CaV3.2. The format is cell-based. The note with it: for Shift in the voltage dependency (activation/inactivation) of CaV3.2: 10 μM compound; for Hill coefficient on CaV3.2: concentration-response fit; for IC50: concentration-response, means ± SEM; for Reversibility of effect on CaV3.2 on wash-out: wash-in and wash-out. How it is done: as §1, §2, §3

Another data set deals with KV11.1 (hERG) (Homo sapiens, UniProt Q12809). As to the kind of experiment: Selectivity screening, KV11.1 (hERG) in Xenopus oocytes. The note with it: human, Xenopus laevis oocytes expressing human KV11.1 (hERG), pH 7.5; 10 μM; means ± SEM (n ≥ 3); read-out: Percentage of inhibition of KV11.1. It counts as cell-based. How it is done:
(§4) As these purpurealidin analogs represent a new class of potent CaV3.1 inhibitors, they could potentially be used as pharmacological tools to investigate the role of CaV3 channels in various disease models. Therefore, compounds 74, 76, 79, and 99 were further evaluated at a concentration of 10 μM for their selectivity against cardiac voltage-gated potassium and sodium channels. […] Nevertheless, the affinity for the KV11.1 channel is an important issue for all four compounds (Table 2).
as §1
(§5) The selectivity screening was conducted with the following protocols: the elicited KV1.4, KV4.2, and KV11.1 currents were filtered at 0.5 kHz and sampled at 2 kHz; NaV1.5 currents were filtered at 2 kHz and sampled at 20 kHz using a four-pole low-pass Bessel filter. Leak subtraction was performed using a -P/4 protocol. The oocytes were measured in a bath solution composition of ND96 (in mM): NaCl, 96; KCl, 2; CaCl2, 1.8; MgCl2, 2; and HEPES, 5 (pH 7.5). For the electrophysiological analysis of the compounds, a number of protocols were applied from a holding potential of −90 mV. Currents for KV1.4 and KV4.2 were evoked by 0.5 s depolarizing pulses to 0 mV, followed by 0.5 s repolarizing pulses to −50 mV. Currents for KV11.1 were evoked by 2.5 s depolarizing prepulses to +40 mV, followed by hyperpolarizing pulses to −120 mV for 2.5 s. Currents for NaV1.5 were evoked by 100 ms depolarizing pulses to 0 mV.
For orientation: The hERG channel carries a current that helps repolarise heart muscle cells.

In data set [2] the target is T1, rat CaV3.1 channel. As to the kind of experiment: Two-electrode voltage clamp on Xenopus oocytes expressing CaV3.1. The format is cell-based.
The target of another data set is human KV11.1 (Homo sapiens, UniProt Q12809). Description: Selectivity screening, KV11.1 (hERG) in Xenopus oocytes. The format is cell-based. The note with it: comparison of own CaV3.1 and KV11.1 data. The protocol:
as §4, §1, §5

The test system of another data set is hERG channels. The following applies: reference not given; cited from earlier work.

human CaV3.2, sequence (O95180 whole entry): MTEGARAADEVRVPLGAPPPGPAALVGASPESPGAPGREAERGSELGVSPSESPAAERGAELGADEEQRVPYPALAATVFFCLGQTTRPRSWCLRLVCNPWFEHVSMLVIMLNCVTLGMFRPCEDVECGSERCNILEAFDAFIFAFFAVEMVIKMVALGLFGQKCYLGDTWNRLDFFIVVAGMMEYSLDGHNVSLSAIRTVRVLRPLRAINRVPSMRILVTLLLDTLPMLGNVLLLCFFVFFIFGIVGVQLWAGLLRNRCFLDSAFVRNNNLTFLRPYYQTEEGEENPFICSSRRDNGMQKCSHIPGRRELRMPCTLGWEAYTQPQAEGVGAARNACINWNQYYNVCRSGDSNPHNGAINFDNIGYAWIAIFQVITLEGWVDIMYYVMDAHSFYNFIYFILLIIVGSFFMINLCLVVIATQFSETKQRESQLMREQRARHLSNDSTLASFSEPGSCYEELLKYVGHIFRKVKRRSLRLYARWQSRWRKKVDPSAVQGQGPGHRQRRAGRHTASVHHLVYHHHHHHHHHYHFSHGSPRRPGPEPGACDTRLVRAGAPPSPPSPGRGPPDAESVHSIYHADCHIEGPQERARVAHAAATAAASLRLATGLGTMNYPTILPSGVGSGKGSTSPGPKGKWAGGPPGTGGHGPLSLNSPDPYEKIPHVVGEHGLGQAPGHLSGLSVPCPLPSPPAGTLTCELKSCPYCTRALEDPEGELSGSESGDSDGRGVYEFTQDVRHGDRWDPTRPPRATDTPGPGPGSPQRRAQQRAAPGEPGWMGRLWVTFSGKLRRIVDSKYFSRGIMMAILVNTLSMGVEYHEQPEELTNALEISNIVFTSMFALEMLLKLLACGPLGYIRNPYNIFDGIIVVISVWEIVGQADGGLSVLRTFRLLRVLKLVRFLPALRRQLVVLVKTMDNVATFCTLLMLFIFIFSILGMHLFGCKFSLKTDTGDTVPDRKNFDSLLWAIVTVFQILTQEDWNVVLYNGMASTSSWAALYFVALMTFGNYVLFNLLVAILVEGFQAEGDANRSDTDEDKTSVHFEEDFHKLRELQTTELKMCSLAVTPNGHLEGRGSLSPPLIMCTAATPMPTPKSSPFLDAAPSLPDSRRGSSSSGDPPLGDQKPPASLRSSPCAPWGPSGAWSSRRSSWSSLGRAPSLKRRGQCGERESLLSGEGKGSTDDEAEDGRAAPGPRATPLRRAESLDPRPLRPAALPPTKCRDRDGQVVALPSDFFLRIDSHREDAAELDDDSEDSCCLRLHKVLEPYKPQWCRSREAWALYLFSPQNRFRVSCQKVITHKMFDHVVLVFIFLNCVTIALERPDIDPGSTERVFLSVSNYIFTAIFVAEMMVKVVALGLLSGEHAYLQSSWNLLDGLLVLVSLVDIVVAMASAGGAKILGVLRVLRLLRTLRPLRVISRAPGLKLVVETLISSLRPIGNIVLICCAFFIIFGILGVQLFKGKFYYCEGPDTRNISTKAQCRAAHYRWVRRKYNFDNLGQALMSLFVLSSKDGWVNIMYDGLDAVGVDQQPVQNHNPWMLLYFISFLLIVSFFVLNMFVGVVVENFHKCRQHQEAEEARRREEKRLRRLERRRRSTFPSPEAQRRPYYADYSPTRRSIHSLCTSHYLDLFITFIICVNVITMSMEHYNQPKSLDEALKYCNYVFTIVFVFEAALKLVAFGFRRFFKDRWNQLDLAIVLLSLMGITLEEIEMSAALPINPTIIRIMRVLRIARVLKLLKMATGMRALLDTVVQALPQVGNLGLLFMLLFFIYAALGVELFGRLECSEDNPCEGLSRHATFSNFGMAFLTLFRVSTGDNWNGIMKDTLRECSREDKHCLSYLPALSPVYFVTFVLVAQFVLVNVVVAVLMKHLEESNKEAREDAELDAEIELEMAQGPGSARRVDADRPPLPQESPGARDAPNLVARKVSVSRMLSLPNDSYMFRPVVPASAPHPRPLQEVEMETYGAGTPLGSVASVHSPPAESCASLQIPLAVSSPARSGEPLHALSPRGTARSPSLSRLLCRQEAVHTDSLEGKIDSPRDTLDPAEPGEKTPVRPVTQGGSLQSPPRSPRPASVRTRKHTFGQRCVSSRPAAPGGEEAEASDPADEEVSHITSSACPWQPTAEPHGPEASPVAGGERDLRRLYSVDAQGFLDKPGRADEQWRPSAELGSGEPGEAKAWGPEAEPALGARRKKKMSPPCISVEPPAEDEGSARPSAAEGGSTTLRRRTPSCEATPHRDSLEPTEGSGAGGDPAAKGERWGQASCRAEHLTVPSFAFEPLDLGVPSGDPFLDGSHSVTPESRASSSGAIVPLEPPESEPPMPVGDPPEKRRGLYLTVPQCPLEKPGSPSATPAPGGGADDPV

Usually inhibition stands for the share of the control response that was lost under treatment. On to `CNCCCOc1c(Br)cc(CCNC(=O)/C(Cc2cc(Br)c(OC)c(Br)c2)=N/O)cc1Br` [Compound 1, purpurealidin I], for which the inhibition at 10 µM on rat CaV3.1 channel [1] turned out to be 70.5 ± 0.6%.

For the compound `O=C(NCc1cccnc1)C1=NOC2(C=C(Cl)C(=O)C(Cl)=C2)C1` [Compound 72], the inhibition at 10 µM at rat CaV3.1 channel [1] is 3.1 ± 1.1%.

As usually defined, the IC50 is the concentration that inhibits the measured activity by half. Take `CN(C)CCCOc1ccc(Nc2ccc(C(F)(F)F)cc2[N+](=O)[O-])cc1` [Compound 74]: on rat CaV3.3, the “Shift in the voltage dependency (activation/inactivation) of CaV3.3” value (“Shift … (activation/inactivation) of CaV3.3” for short) was “No significant shift”; the “Hill coefficient on CaV3.3” value is 0.5 ± 0.1; the midpoint of inhibition, the IC50, lay at 13.9 ± 5.1 µM; the “Reversibility of effect on CaV3.3 on wash-out” value is given as “reversible”. For the same compound, on human CaV3.2, the “Shift in the voltage dependency (activation/inactivation) of CaV3.2” value (“Shift … (activation/inactivation) of CaV3.2” below) is “No significant shift”, the “Hill coefficient on CaV3.2” value came out at 0.8 ± 0.0, the IC50 was 3 ± 0.2 µM and the “Reversibility of effect on CaV3.2 on wash-out” value is listed as “reversible”. For the same compound, on rat CaV3.1 channel [1], the “Shift in the voltage dependency (activation/inactivation) of CaV3.1” value (shortened to “Shift … (activation/inactivation) of CaV3.1”) is given as “No significant shift”; the inhibition at 10 µM was 43.4 ± 2.4%; the midpoint of inhibition, the IC50, lay at 2.6 ± 0.6 µM; the “Hill coefficient on CaV3.1” value was found to be 0.8 ± 0.1. Besides, the “Reversibility of effect on CaV3.1 on wash-out” value on rat CaV3.1 channel [1] is on record as “reversible”. Besides, at KV11.1 (hERG), the inhibition at 10 µM came to 45.8 ± 2.9%.

As to `CN(C)CC(O)COc1ccc(Nc2ccc(C(F)(F)F)cc2[N+](=O)[O-])cc1` (stereo not shown) [Compound 76], on rat CaV3.3, the “Shift … (activation/inactivation) of CaV3.3” value is listed as “No significant shift”, the “Hill coefficient on CaV3.3” value was 0.7 ± 0.1, inhibition was half-maximal at 18.2 ± 3.1 µM (IC50) and the “Reversibility of effect on CaV3.3 on wash-out” value is “reversible”. Also, on human CaV3.2, the “Shift … (activation/inactivation) of CaV3.2” value is on record as “No significant shift”, the “Hill coefficient on CaV3.2” value came to 0.8 ± 0.1, half-maximal inhibition (IC50) required 8.4 ± 3.6 µM and the “Reversibility of effect on CaV3.2 on wash-out” value is on record as “reversible”. Also, on rat CaV3.1 channel [1], the “Shift … (activation/inactivation) of CaV3.1” value is given as “No significant shift”, the inhibition at 10 µM amounted to 43 ± 4.5%, the 50% inhibitory concentration (IC50) came out at 3.7 ± 0.6 µM and the “Hill coefficient on CaV3.1” value is listed as 0.9 ± 0.1. The “Reversibility of effect on CaV3.1 on wash-out” value on rat CaV3.1 channel [1] is recorded as “reversible”. For the same compound, the inhibition at 10 µM at KV11.1 (hERG) was found to be 64.2 ± 3.2%.

For the compound `CN(C)CC(O)COc1ccc(Nc2ccc(C(F)(F)F)cc2)cc1` (stereo not shown) [Compound 79], at rat CaV3.3, the “Shift … (activation/inactivation) of CaV3.3” value was “No significant shift”, the “Hill coefficient on CaV3.3” value is on record as 0.7 ± 0.1, inhibition was half-maximal at 2.7 ± 0.3 µM (IC50) and the “Reversibility of effect on CaV3.3 on wash-out” value is “reversible”. Besides, at human CaV3.2, the “Shift … (activation/inactivation) of CaV3.2” value is on record as “No significant shift”, the “Hill coefficient on CaV3.2” value stood at 1.0 ± 0.0, the IC50 came to 7 ± 0.1 µM and the “Reversibility of effect on CaV3.2 on wash-out” value is given as “reversible”. At rat CaV3.1 channel [1], the “Shift … (activation/inactivation) of CaV3.1” value was “No significant shift”, the inhibition at 10 µM came out at 60.4 ± 5.7%, the concentration for half-maximal inhibition (IC50) was 5.9 ± 1.9 µM and the “Hill coefficient on CaV3.1” value worked out at 0.8 ± 0.1. The “Reversibility of effect on CaV3.1 on wash-out” value on rat CaV3.1 channel [1] is listed as “reversible”. Further, at KV11.1 (hERG), the inhibition at 10 µM was determined as 67.6 ± 3.9%.

As to `CN(C)CC(O)COc1ccc(Oc2ccc(C(F)(F)F)cc2[N+](=O)[O-])cc1` (stereo not shown) [Compound 99], on human CaV3.2, the “Hill coefficient on CaV3.2” value is recorded as 1.4 ± 0.3 and the half-maximal inhibitory concentration (IC50) was 2.3 ± 0.5 µM. In addition, on rat CaV3.1 channel [1], the inhibition at 10 µM came to 90.7 ± 5.4%; the IC50 was ~3 µM and 4.1 µM; the “Hill coefficient on CaV3.1” value was 1.6 ± 0.1. For the same compound, the “Shift … (activation/inactivation) of CaV3.1” value on rat CaV3.1 channel [2] (5 μM compound) is recorded as “no significant shift”. Further, at rat CaV3.1 channel [2] (5 μM compound, read-out: Inhibition of CaV3.1 currents), the inhibition at 5 µM stood at 57 ± 5.8%. The “Reversibility of effect on CaV3.1 on wash-out” value on rat CaV3.1 channel [2] (5 μM compound, wash-out with compound-free bath solution) is listed as “not completely reversible”. Moreover, the “Midpoint of activation V1/2” value at rat CaV3.1 channel [2] (in the presence of 5 μM compound, control −39.9 ± 0.1 mV) is given as −37.4 ± 0.1 mV. Also, on rat CaV3.1 channel [2] (in the presence of 5 μM compound, control −56.0 ± 0.1 mV), the “Inactivation curve V1/2” value was −53.0 ± 0.2 mV. In addition, the “Potency across CaV3.1 and hERG channels” value at human KV11.1 was “equipotent”. Further, the inhibition at 10 µM on KV11.1 (hERG) stood at 69.1 ± 1.9%.

For the compound `CC(C)(C)NC(=O)CN1CCC(CNC(=O)c2cc(F)cc(Cl)c2)CC1` [Compound Z944], in the data set on hERG channels, the 50% inhibitory concentration (IC50) was 7.8 µM and the “Potency against CaV3.1 compared to hERG channels” value is given as 150 fold.
